Publication PMC6588435 (Cell chemical biology, 2019)
In brackets after ≈: the same amount, converted by molar mass. Several values for one entry are separate records, joined by “and”; a condition that tells them apart may be missing. Identical values can stand only once. Like-named read-outs stand apart in the source and are kept apart here.

How the values were obtained:
Mtb Erdman (ATCC 35801) = experiment: In vitro susceptibility testing; format: cell-based, Mycobacterium tuberculosis
Mtb Erdman cells = format: cell-based, Mycobacterium tuberculosis
Mtb FDTS [1] = target: T1, Mtb FDTS (Mycobacterium tuberculosis, UniProt P9WG57); experiment: Differential scanning calorimetry of Mtb FDTS; conditions: DSC; control (FDTS, dUMP, FAD) 66.6 °C
T1 sequence (P9WG57 whole entry): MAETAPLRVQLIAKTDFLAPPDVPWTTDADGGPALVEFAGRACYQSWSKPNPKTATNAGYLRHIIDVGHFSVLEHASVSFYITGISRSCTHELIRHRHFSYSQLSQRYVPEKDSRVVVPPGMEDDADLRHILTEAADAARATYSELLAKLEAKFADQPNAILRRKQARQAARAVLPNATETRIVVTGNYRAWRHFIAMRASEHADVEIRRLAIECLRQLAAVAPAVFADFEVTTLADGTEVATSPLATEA

Mtb DHFR [2] = target: T2, Mtb DHFR (Mycobacterium tuberculosis, UniProt P9WNX1); experiment: biochemical
T2 sequence (P9WNX1 whole entry): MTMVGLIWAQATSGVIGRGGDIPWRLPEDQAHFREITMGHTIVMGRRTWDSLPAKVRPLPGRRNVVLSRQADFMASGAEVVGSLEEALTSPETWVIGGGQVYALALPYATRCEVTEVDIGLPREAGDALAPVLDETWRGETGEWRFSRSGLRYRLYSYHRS

Mtb DHFR [3] = target: T2, Mtb DHFR; experiment: biochemical; remark: listed apart in the source
Mtb FDTS [4] = target: T1, Mtb FDTS; experiment: HPLC analysis of Mtb FDTS reaction; format: biochemical
Mtb FDTS [5] = target: T1, Mtb FDTS; experiment: Mtb FDTS NADPH oxidation assay; format: biochemical
Mtb Rv2671 = Mtb Rv2671 (Mycobacterium tuberculosis, UniProt P71968); experiment: Mtb Rv2671 enzyme inhibition assay; format: biochemical
Mtb DHFR [6] = target: T2, Mtb DHFR; format: binding; conditions: DSC, with NADPH; control (Mtb DHFR+NADPH) 65 °C
Mtb cells = conditions: treatment of Mtb cells; ref Nixon et al. (2014); cited from earlier work
[7] = read-out: Mtb Rv2671 Ki, 50 μM NADPH

CN(Cc1cnc2nc(N)nc(N)c2n1)c1ccc(C(=O)N[C@@H](CCC(=O)O)C(=O)O)cc1 [MTX, Methotrexate]
MIC (Mtb Erdman (ATCC 35801); Mycobacterium tuberculosis, ATCC35801|ERDMAN): > 100 µg/mL

Nc1ccc(C(=O)O)c(O)c1 [PAS, para-aminosalicylic acid]
reduction of 14C incorporation to the FAME/MAME fraction (Mtb Erdman cells; 0.36 μg/ml): 52%
effect on methoxymycolic acids (Mtb Erdman cells; TLC of FAME/MAME): significant reduction
MIC (Mtb Erdman (ATCC 35801); Mycobacterium tuberculosis, ATCC35801|ERDMAN, read-out: MIC, WT Mtb): 0.5 µg/mL (≈ 3.27 µM)

Nc1nc(=O)c2nc(CNc3ccc(C(=O)NC(CCC(=O)O)C(=O)O)c(O)c3)cnc2[nH]1 (centres unmarked) [PAS-M, 2-[(4-{[(2-amino-4-oxo-1,4-dihydropteridin-6-yl)methyl]amino}-2-hydroxyphenyl)formamido] pentanedioic acid]
Mtb FDTS Tm (Mtb FDTS [1]): 71.9 °C
Ki (Mtb DHFR [2]): 750 ± 120 nM
koff (Mtb DHFR [3]; read-out: Mtb DHFR koff): 0.0107 s⁻¹
residence time (Mtb DHFR [3]; read-out: Mtb DHFR tR (residence time)): 1.5 ± 0.3 min
decrease in dTMP levels compared to control (Mtb FDTS [4]): ~ 2.5 fold
IC50 (Mtb FDTS [5]): 14400 ± 1500 nM
Ki (Mtb Rv2671): 27500 nM

CCc1nc(N)nc(N)c1C#C[C@H](C)c1cc(-c2ccncc2)ccc1OC [UCP1063]
MIC (Mtb Erdman (ATCC 35801)): 2 µg/mL (≈ 5.36 µM)
Mtb DHFR Tm (Mtb DHFR [6]): 71 °C and 71 ± 2.7 °C
Ki (Mtb Rv2671; [7]): 52 ± 6.2 nM

CCc1nc(N)nc(N)c1C#C[C@@H](C)c1cc(-c2ccc(C(=O)O)cc2)ccc1OC [UCP1164]
MIC (Mtb Erdman (ATCC 35801)): 0.5 µg/mL (≈ 1.2 µM)
Ki (Mtb Rv2671; [7]): 120 ± 8.5 nM

CC1(C)N=C(N)N=C(N)N1OCCCOc1cc(Cl)c(Cl)cc1Cl [WR99210]
decrease in the concentration of SAM (Mtb cells): 20 fold
